According to PMC11207040, “Synthesis and Biological Studies of New Temporin A Analogs Containing Unnatural Amino Acids in Position 7” (Pharmaceutics, 2024):
Where two headings read alike, the source gives them in different places. Non-standard residues stand in square brackets, D forms with d. Residues, ends and D or L forms follow the SMILES beside them. Dab = NCC[C@H](N)C(=O)O

Columns and labels:
[1] = 3T3 NRU cytotoxicity/phototoxicity test; format: cell-based, mouse; settings: mouse; for CC50: cytotoxicity, no irradiation, BALB 3T3 clone A31, Neutral Red uptake, read-out: Mean CC50 ± SD, −Irr; for CC50 at 24 h: phototoxicity, irradiated 2.4 J/cm^2, BALB 3T3 clone A31, Neutral Red uptake, read-out: Mean CC50 ± SD, +Irr
Experimental: (§1) The cell lines BALB 3T3 (mouse embryonic fibroblasts) and MCF-12F (human breast epithelial cells) were used as models for healthy tissue. The MCF-7 and MDA-MB-231 cell lines were used as in vitro models for luminal A- and basal B-type breast cancer, respectively. Cell lines were obtained from the American Type Cultures Collection (ATCC, Manassas, VA, USA). Cells were cultured in Dulbecco modified Eagle’s medium (DMEM) supplemented with 10% fetal bovine serum (FBS), 100 U/mL penicillin, and 0.1 mg/mL streptomycin (Sigma-Aldrich, Schnelldorf, Germany) in an incubator at 37 °C, 5% CO2 and 95% humidity. Plastic flasks 75 cm^2 (Biologix, Lenexa, KS, USA) were used to grow the cells.
(§2) The cytotoxicity/phototoxicity testing was performed as described by the OECD Guidelines for the Testing of Chemicals, Section 4, Test No. 432: In Vitro 3T3 NRU Phototoxicity Test. BALB 3T3, clone A31 cells were grown in 75 cm^2 tissue culture flasks in DMEM high-glucose (4.5 g/L), 10% FBS, and antibiotics at 37.5 °C, in a humidified atmosphere under 5% CO2. Cells were plated at 1 × 10^4 cells / 100 μL culture medium in each well of 96-well microplates and allowed to adhere for 24 h before treatment with test compounds. Peptides were dissolved in DMSO and diluted with culture medium to working concentrations from 4 to 1000 μM. In phototoxicity tests, 96-well plates were irradiated (+Irr) with a dose of 2.4 J/cm^2 using an artificial solar light simulator Helios-iO (SERIC Ltd., Tokyo, Japan), and the cells were incubated for an additional 24 h. After treatment with a Neutral Red medium, washing, and application of the NR Desorb solution, the absorption was measured on a microplate reader at a wavelength of 540 nm. Cytotoxicity/phototoxicity was expressed as CC50 values (concentrations required for 50% cytotoxicity).

BALB 3T3 clone A31 cells = assay: 3T3 NRU cytotoxicity/phototoxicity test; format: cell-based, mouse; settings: PIF = CC50 −Irr/CC50 +Irr; PIF < 2 = not phototoxic
Experimental: as §1, §2

MCF-7 cells = assay: MTT antiproliferative assay, MCF-7; format: cell-based, human; settings: for IC50: MTT, 72 h, read-out: Mean IC50 ± SD, MCF-7; for SI (Selectivity Index), MCF-7: SI = IC50 MCF-12F/IC50 tumor cells;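 on SI (Selectivity Index), MCF-7: numerator is the IC50 in non-tumorigenic MCF-12F cells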
Experimental: as §1
The antiproliferative activity testing was performed on cell cultures using the MTT-dye reduction assay. This assay is based on the metabolism of MTT to insoluble formazan by mitochondrial reductases. The formazan concentration can be determined spectrophotometrically. The measured absorption is an indicator of cell viability. Cell lines (MCF-12F, MCF-7 and MDA-MB-231) were used in the experiments. Cells were plated at a density of 1 × 10^3 cells/100 µL in each well of 96-well microplates and allowed to adhere for 24 h before treatment with test compounds. A concentration range from 4 to 1000 μM was applied for 72 h. The formazan absorption was registered using a microplate reader at λ = 540 nm. Antiproliferative activities were expressed as IC50 values (concentrations required for 50% inhibition of cell growth).

[2] = test system: Arthrobacter oxydans NBIMCC 9333; format: cell-based; settings: for Inhibition effect, A. oxydans 9333: zone of peptide over zone of antibiotic x 100; for Inhibition zone, A. oxydans 9333: 20 µL per disc, 24 h
Experimental: (§3) The parent peptide Temporin A and the novel analogs were subjected to tests against model strains Escherichia coli NBIMCC 8785, Bacillus subtilis NBIMCC 3562, Arthrobacter oxydans NBIMCC 9333, Pseudomonas aeruginosa NBIMCC 3700, and Candida albicans NBIMCC 74, for the assessment of their antimicrobial activity. The strains were acquired from the National Bank for Industrial Microorganisms and Cell Cultures (NBIMCC, Bulgaria). The strain E. coli 8785 was cultured in Luria-Bertani broth (LB, HiMedia, Mumbai, India); B. subtilis 3562—in nutrient broth (NB, HiMedia, Mumbai, India); A. oxydans 9333; P. aeruginosa 3700—in meat peptone agar (MPA) medium; and C. albicans 74—in yeast mold (YM) medium. An incubator shaker ES-20/60 (Biosan, Latvia) was used for the cultivation and was set to 30 °C for B. subtilis 3562, A. oxydans 9333, and C. albicans 74; and 37 °C for E. coli 8785 and P. aeruginosa 3700, with a 24 h shaking period at 120 rpm. The microbial cultures were then adjusted to a turbidity of 0.5 McFarland using a Grant-bio DEN-1B densitometer (Grant Instruments, Royston, UK) for further use.
(§4) The disk-diffusion method was used as an additional method, with the aim of determining the percent inhibition of the tested samples against the model strains. Sterile plates with LB/NB/MPA/YM agar medium were inoculated on the surface with 100 μL from each microbial culture and incubated at 30 or 37 °C for 30 min, for the suspension to penetrate the agar. After that, sterile paper discs (HiMedia, Mumbai, India) with a diameter of 6 mm were soaked with 20 µL of the peptide solutions with concentrations of 1.4 mg/mL and 10 mg/mL and placed on the agar surface. Sterile paper discs with 10% EtOH/H2O were used as a negative control, and the corresponding strain antibiotic disks (HiMedia, Mumbai, India)—as a positive control. The incubation of the plate was performed at 30/37 °C for 24 h. The antimicrobial activity was analyzed by measuring the diameter of the inhibition zones in mm. The experiments were conducted in triplicates, and the average values for the percent of inhibition as a correlation between the inhibition zone of the peptides over the inhibition zone of the antibiotic multiplied by 100 were calculated.

[3] = test system: Bacillus subtilis NBIMCC 3562; format: cell-based; settings: for Inhibition effect, B. subtilis 3562: zone of peptide over zone of antibiotic x 100; for Inhibition zone, B. subtilis 3562: 20 µL per disc, 24 h
Experimental: as §3, §4

[4] = test system: Candida albicans NBIMCC 74; format: cell-based; settings: 20 µL per disc, 24 h
Experimental: as §3, §4

[5] = test system: Escherichia coli NBIMCC 8785; format: cell-based; settings: 20 µL per disc, 24 h
Experimental: as §3, §4

[6] = test system: Pseudomonas aeruginosa NBIMCC 3700; format: cell-based; settings: for Inhibition effect, P. aeruginosa 3700: zone of peptide over zone of antibiotic x 100; for Inhibition zone, P. aeruginosa 3700: 20 µL per disc, 24 h
Experimental: as §3, §4

SMILES	CC50 [1]	CC50 at 24 h [1]	PIF (photo irritation factor) (BALB 3T3 clone A31 cells)	IC50 (MCF-7 cells)	SI (Selectivity Index), MCF-7 (MCF-7 cells)	Inhibition effect, A. oxydans 9333 ([2]; 1.4 mg/mL)	Inhibition effect, A. oxydans 9333 ([2]; 10 mg/mL)	Inhibition zone, A. oxydans 9333 ([2]; peptide 1.4 mg/mL)	Inhibition zone, A. oxydans 9333 ([2]; peptide 10 mg/mL)	Inhibition effect, B. subtilis 3562 ([3]; 1.4 mg/mL)	Inhibition effect, B. subtilis 3562 ([3]; 10 mg/mL)	Inhibition zone, B. subtilis 3562 ([3]; peptide 1.4 mg/mL)	Inhibition zone, B. subtilis 3562 ([3]; peptide 10 mg/mL)	Inhibition zone, C. albicans 74 ([4]; peptide 1.4 mg/mL)	Inhibition zone, C. albicans 74 ([4]; peptide 10 mg/mL)	Inhibition zone, E. coli 8785 ([5]; peptide 1.4 mg/mL)	Inhibition zone, E. coli 8785 ([5]; peptide 10 mg/mL)	Inhibition effect, P. aeruginosa 3700 ([6]; 1.4 mg/mL)	Inhibition effect, P. aeruginosa 3700 ([6]; 10 mg/mL)	Inhibition zone, P. aeruginosa 3700 ([6]; peptide 1.4 mg/mL)	also measured
CC[C@H](C)[C@H](NC(=O)CNC(=O)[C@H](CO)NC(=O)[C@H](CC(C)C)NC(=O)[C@@H](NC(=O)[C@H](CCN)NC(=O)CNC(=O)[C@@H](NC(=O)[C@H](CC(C)C)NC(=O)[C@@H]1CCCN1C(=O)[C@H](CC(C)C)NC(=O)[C@@H](N)Cc1ccccc1)[C@@H](C)CC)C(C)C)C(=O)N[C@@H](CC(C)C)C(N)=O [DTDab, FLPLIG-Dab-VLSGIL-NH2] (H-FLPLIG[Dab]VLSGIL-NH2; N-terminus assumed)	210 ± 6.69 µM	207 ± 7.41 µM	1.01	157 ± 4.97 µM	1.78	43.2%	76.3%	8.2 ± 0.3 mm	14.5 ± 0.5 mm	0.0%	45.2%	0.0 mm	11.3 ± 0.6 mm	0.0 mm	0.0 mm	0.0 mm	0.0 mm	48.1%	89.4%	7.7 ± 0.6 mm	Inhibition zone, P. aeruginosa 3700 ([6]; peptide 10 mg/mL): 14.3 ± 0.6 mm
CC[C@H](C)[C@H](NC(=O)CNC(=O)[C@H](CO)NC(=O)[C@H](CC(C)C)NC(=O)[C@@H](NC(=O)[C@H](CCCCN)NC(=O)CNC(=O)[C@@H](NC(=O)[C@H](CC(C)C)NC(=O)[C@@H]1CCCN1C(=O)[C@H](CC(C)C)NC(=O)[C@@H](N)Cc1ccccc1)[C@@H](C)CC)C(C)C)C(=O)N[C@@H](CC(C)C)C(N)=O [DTF, FLPLIG-K-VLSGIL-NH2, reference compound] (H-FLPLIGKVLSGIL-NH2)	92.4 ± 2.82 µM	88.4 ± 1.48 µM	1.05	49.8 ± 1.9 µM	2.02	33.5%	57.5%	6.7 ± 0.3 mm	11.5 ± 0.5 mm	34.0%	50.8%	8.5 ± 0.5 mm	12.7 ± 0.6 mm	0.0 mm	0.0 mm	0.0 mm	0.0 mm	43.8%	64.4%	7.0 ± 0.5 mm	Inhibition zone, P. aeruginosa 3700 ([6]; peptide 10 mg/mL): 10.3 ± 0.8 mm
